{
  "source": "patent US20260055081A1",
  "about": "“Metal Chelator Compounds, Coordination Complexes, and Methods of Preparation and Use Thereof” (University of Puerto Rico, priority 2022, published 2026)",
  "key": {"[1]": {"system": "NCI 60 human tumor cell lines", "test": "NCI 60 cancer cell line screen, all cell lines tested", "type": "cell-based", "conditions": "48 h", "method": "(§1) National Cancer Institute Cancer Cell Line (NCI 60) Screen of DefNEtTrp. Details of the methodology for NCI 60 cell line screening are described at http://dtp.nci.nih.gov/branches/btb/ivclsp.html. The cells, grown in supplemented RPMI-1640 medium, are seeded in 96 well plates at an appropriate density and incubated for 24 h. The test compounds are dissolved in DMSO and incubated with cells at a single dose of 10.0 μM for 48 h. The assay is terminated by addition of cold trichloroacetic acid, and the cells are fixed and stained with sulforhodamine B. Bound stain is solubilized, and the absorbance is read on an automated plate reader. […] Using the seven absorbance measurements [time zero, […], control growth, (C), and test growth in the presence of drug at the five concentration levels (Tf)], the percentage growth was calculated at each of the drug concentrations levels as: [(Tf−Ti)/(C−Ti)]×100 for concentrations for which Tf≥Ti and [(Tf−Ti)/Ti]×100 for concentrations for which Tf<Ti. Three-dose response parameters (GI50, TGI, and LC50) were calculated for each of the experimental agents in five dose assay. Growth inhibition of 50% (GI50) was calculated from 100×[(Tf−Ti)/(C−Ti)]=50, which was the drug concentration resulting in a 50% reduction in the net protein increase (as measured by sulforhodamine B, SRB staining) in control cells during the drug incubation. The total growth inhibition (TGI) was calculated from Tf=Ti, which was the drug concentration resulting in total growth inhibition and signified the cytostatic effect. The 50% cellular death (LC50) was calculated from 100×[(Tf−Ti)/Ti]=−50, indicating a net loss of cells following treatment which indicated the concentration of drug resulting in a 50% reduction in the measured protein at the end of the drug treatment as compared to that at the beginning. […] Log GI50, log TGI, and log LC50 are the logarithm molar concentrations producing 50% growth inhibition (GI50), a total growth inhibition (TGI), and a 50% cellular death (LC50), respectively."}, "Leukemia cell lines": {"system": "Leukemia cell lines", "test": "NCI 60 five-dose screen, leukemia panel", "type": "cell-based, human", "method": "as §1"}, "[2]": {"system": "Non-Small Cell Lung cancer cell lines", "test": "NCI 60 five-dose screen, non-small cell lung panel", "type": "cell-based, human", "conditions": "48 h", "method": "(§2) National Cancer Institute Cancer Cell Line (NCI 60) Screen of DefNEtTrp. Details of the methodology for NCI 60 cell line screening are described at http://dtp.nci.nih.gov/branches/btb/ivclsp.html. The cells, grown in supplemented RPMI-1640 medium, are seeded in 96 well plates at an appropriate density and incubated for 24 h. The test compounds are dissolved in DMSO and incubated with cells at a single dose of 10.0 μM for 48 h. The assay is terminated by addition of cold trichloroacetic acid, and the cells are fixed and stained with sulforhodamine B. Bound stain is solubilized, and the absorbance is read on an automated plate reader. […] Using the seven absorbance measurements [time zero, […], control growth, (C), and test growth in the presence of drug at the five concentration levels (Tf)], the percentage growth was calculated at each of the drug concentrations levels as: [(Tf−Ti)/(C−Ti)]×100 for concentrations for which Tf≥Ti and [(Tf−Ti)/Ti]×100 for concentrations for which Tf<Ti. Three-dose response parameters (GI50, TGI, and LC50) were calculated for each of the experimental agents in five dose assay. […] The total growth inhibition (TGI) was calculated from Tf=Ti, which was the drug concentration resulting in total growth inhibition and signified the cytostatic effect. […]"}, "CNS cancer cell lines": {"system": "CNS cancer cell lines", "test": "NCI 60 five-dose screen, CNS panel", "type": "cell-based, human", "conditions": "48 h", "method": "as §2"}, "[3]": {"system": "Ovarian cancer cell lines", "test": "NCI 60 five-dose screen, ovarian panel", "type": "cell-based, human", "conditions": "48 h", "method": "as §2"}, "Renal cancer cell lines": {"system": "Renal cancer cell lines", "test": "NCI 60 five-dose screen, renal panel", "type": "cell-based, human", "conditions": "48 h", "method": "as §2"}, "Breast cancer cell lines": {"system": "Breast cancer cell lines", "test": "NCI 60 five-dose screen, breast panel", "type": "cell-based, human", "conditions": "48 h", "method": "as §2"}, "red blood cells": {"system": "red blood cells", "test": "CO-ADD hemolysis assay", "type": "cell-based, human", "conditions": "up to a concentration of 50.3 μM; human red blood cells, 1 h at 37° C.", "method": "CO-ADD hemolysis assay. Dry compounds ranging from 1-2 mg were delivered to the CO-ADD. The compounds were solubilized to a stock concentration of 10 mg/mL in DMSO. Samples were serially diluted 1:2 fold in water to final testing concentrations of […] while keeping the final DMSO concentration to a maximum of 0.32% (v/v). Each sample concentration was prepared in polypropylene 384-well plates (Corning 3657) for hemolysis assays, all in two duplicate plates (n=2). All sample preparation was conducted using liquid handling robots. Human whole blood (Australian Red Cross) was washed three times with three volumes of 0.9% NaCl (w/v) and resuspended in a concentration of […], determined by manual cell count in a Neubauer hemocytometer. Washed cells were added to the compound-containing plates for a final volume of 50 μL. After a 10 min shake on a plate shaker the plates were then incubated for 1 h at 37° C. After incubation, the plates were centrifuged at 1000 g for 10 min to pellet cells and debris, 25 μL of the supernatant was then transferred to reading plates (384 well, polystyrene plated (PS), Corning CLS3680), with hemolysis determined by measuring the supernatant absorbance at […] (OD405) using a Tecan M1000 Pro monochromator plate reader. HC10 and HC50 (concentration at 10% and 50% hemolysis, respectively) were calculated by curve fitting the inhibition values vs. log(concentration) using a sigmoidal dose-response function with variable fitting values for the top, bottom, and slope. The maximal percentage of hemolysis is reported as Dmax. Hemolysis samples are classified by HC10≤32 μg/mL. […] Melittin was used in 8 concentrations in 2-fold serial dilutions with 50 µg/mL being the highest concentration."}, "Jurkat cells": {"system": "Jurkat cells", "test": "Apoptosis mechanistic cell viability study (Q-VD-OPh)", "type": "cell-based, human", "conditions": "10 μM Q-VD-OPh pretreatment, 2 μM DefNEtTrp, 72 h", "method": "Apoptosis mechanistic cell viability study. Jurkat cells were seeded into 96-well plates, as indicated in the MTT assay described above. The cells were treated with 10 μM of the apoptosis inhibitor Q-VD-OPh (Q-V-O). Another group of cells were treated with media alone. After 1 h incubation, half of the cells supplemented with Q-V-O were treated with 2 μM DefNEtTrp or 2 μM cisplatin, as positive control, while the other half was treated with media alone. The final percentage of DMF was maintained at 0.5% (v/v). The MTT assay was performed with these samples (n=6). A student t-test was performed to evaluate the difference in the viability of cells treated with DefNEtTrp or cisplatin and supplemented with and without Q-V-O."}, "[4]": {"conditions": "cell lines in which TGI was observed"}, "[5]": {"conditions": "Homo sapiens, read-out: GI50 (calculated average)"}},
  "data": [
    {"smiles": "Nc1cccnc1/C=N/NC(=S)NCCNC(=O)c1ccc(-n2nc(-c3ccccc3O)nc2-c2ccccc2O)cc1", "note": "[DefNEtTrp, deferasirox nitrogen ethyl triapine]", "values": [
      {"measurement": "GI50", "setting": "[1]; Homo sapiens, five-dose assay, average over all cell lines, read-out: average GI50 concentration, all cell lines", "value": 1200, "unit": "nM"},
      {"measurement": "LC50", "setting": "[1]; Homo sapiens, five-dose assay, average over cell lines with 50% cell death", "value": 38.9, "unit": "µM"},
      {"measurement": "share of cell lines tested with total cell growth inhibition", "setting": "[1]; five-dose assay", "value": 77, "unit": "%"},
      {"measurement": "share of tested cell lines with 50% cell death", "setting": "[1]; five-dose assay", "value": 14, "unit": "%"},
      {"measurement": "average TGI concentration", "setting": "[1]; five-dose assay, average over cell lines in which TGI was observed", "value": 8.5, "unit": "µM"},
      {"measurement": "antiproliferative activity in one-dose test", "setting": "[1]; one-dose test of 10 μM", "value": "very promising broad spectrum antiproliferative activity"},
      {"measurement": "GI50", "setting": "Leukemia cell lines; Homo sapiens, Leukemia, five-dose, 48 h, read-out: GI50 (calculated average)", "value": 290, "unit": "nM"},
      {"measurement": "TGI (calculated average)", "setting": "Leukemia cell lines; Leukemia, five-dose, 48 h, cell lines in which TGI was observed", "value": 1.78, "unit": "µM"},
      {"measurement": "antiproliferative behavior against all leukemia cell lines in the NCI screen", "setting": "Leukemia cell lines; NCI screen", "value": "~100", "unit": "%"},
      {"measurement": "TGI (calculated average)", "setting": "[2]; [4]", "value": 6.33, "unit": "µM"},
      {"measurement": "GI50", "setting": "[2]; [5]", "value": 730, "unit": "nM"},
      {"measurement": "TGI (calculated average)", "setting": "CNS cancer cell lines; [4]", "value": 12.43, "unit": "µM"},
      {"measurement": "GI50", "setting": "CNS cancer cell lines; [5]", "value": 500, "unit": "nM"},
      {"measurement": "TGI (calculated average)", "setting": "[3]; [4]", "value": 9.82, "unit": "µM"},
      {"measurement": "GI50", "setting": "[3]; [5]", "value": 1120, "unit": "nM"},
      {"measurement": "TGI (calculated average)", "setting": "Renal cancer cell lines; [4]", "value": 13.71, "unit": "µM"},
      {"measurement": "GI50", "setting": "Renal cancer cell lines; [5]", "value": 4.97, "unit": "µM"},
      {"measurement": "TGI (calculated average)", "setting": "Breast cancer cell lines; [4]", "value": 4.84, "unit": "µM"},
      {"measurement": "GI50", "setting": "Breast cancer cell lines; [5]", "value": 450, "unit": "nM"},
      {"measurement": "hemolysis", "setting": "red blood cells", "value": "~5", "unit": "%"},
      {"measurement": "change in viability of cells pretreated with Q-VD-OPh", "setting": "Jurkat cells", "value": "two-fold increase in viability"}
    ]}
  ]
}
